In brackets after ≈: the same amount, converted by molar mass. Like-named read-outs stand apart in the source and are kept apart here.
Legend:
OC43-CoV 3CLpro = OC43-CoV 3CLpro (Human coronavirus OC43, UniProt P0C6X6); assay: FRET protease activity assay; assay type: biochemical; details: Beta-CoV; [E]T 52 ± 1 nM
SARS-CoV-2 [1] = assay: Efficacious target concentration and human dose projection; details: across a range of in vitro antiviral assays
VeroE6-enACE2 cells = details: African green monkey
229E-CoV-2 3CLpro = 229E-CoV-2 3CLpro (Human coronavirus 229E, UniProt P0C6X1); assay: FRET protease activity assay; assay type: biochemical; details: Alpha-CoV; [E]T 118 ± 3 nM
Chain of 229E-CoV-2 3CLpro (P0C6X1 2966-3267): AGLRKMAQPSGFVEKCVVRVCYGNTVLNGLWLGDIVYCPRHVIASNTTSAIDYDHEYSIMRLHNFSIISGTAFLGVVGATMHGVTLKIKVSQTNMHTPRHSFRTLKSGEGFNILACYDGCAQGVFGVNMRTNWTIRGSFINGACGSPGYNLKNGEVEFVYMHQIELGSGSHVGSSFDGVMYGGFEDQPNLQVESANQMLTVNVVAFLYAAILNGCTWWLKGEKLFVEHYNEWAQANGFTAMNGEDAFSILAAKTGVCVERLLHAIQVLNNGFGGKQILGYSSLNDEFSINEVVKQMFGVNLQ

physchem [2] = details: 25 °C, pH 5, aqueous buffer, thermodynamic from solid, Saturated solubility for PF-00835231 at 25° C.
SARS-CoV-2 [3] = details: for Bliss Synergy Score / HSA Synergy Score / Loewe Synergy Score: with Remdesivir; for classification of the combination effect: with remdesivir
SARS-CoV-2 [4] = assay: microbe, parasite or virus in culture
[5] = tested on: CYP1A2, 2B6, 2C8, 2C9, 2C19, 2D6, and 3A; details: read-out: IC50, reversible inhibition of CYP enzymes; probe substrates in pooled HLM
HCOV-229E = assay: Antiviral activity in MRC-5 cells; assay type: cell-based; details: lung cell lines (A549-ACE2 and MRC5)
[6] = human
[7] = 48 h
[8] = rat, dog, monkey, in vivo
[9] = Physical stability on storage of the 6 mg/mL formulation (F11); assay type: physicochemical; details: 80 mg/mL SBE-β-CD, […] v/v ethanol, 3.4% v/v PEG400, 6 mg/mL PF-00835231
Protocol: To further assess the robustness of formulations prepared in Formulation Example F10, a single formulation was selected to scale-up for use in a stability study.
An additional 20 mL solution of 300 mg/mL SBE-β-CD was similarly prepared.
14.29 mL of the citrate buffer and SBE-β-CD stock solution was then added to two separate 20 mL scintillation vials. […] The drug product solutions were mixed overnight and filtered through a 0.2 um PVDF filter. 0.5 mL aliquots of drug product solutions were then filled into 4 mL vials, stoppered, crimped, and placed in temperature-controlled chambers at −20° C., 4° C., and 25° C.
Furthermore, if the solutions were supersaturated at room temperature, exposure to refrigerated or frozen storage temperatures should induce precipitation and cause a decrease in assay. […] (top), 4° C. (center), and 25° C. (bottom). For each condition, data from two separate samples is plotted and is shown with a linear fit to the data.

SARS-CoV-2 3CLpro = SARS-CoV-2 3CLpro (Severe acute respiratory syndrome coronavirus 2, UniProt P0DTD1); assay: Thermal-shift assay; details: n=8; 55.9+/−[…] C. (n=16) without compound
[10] = Plasma protein binding by equilibrium dialysis
[11] = tested on: SARS-CoV-2 USA-NYU-VC-003/2020; assay: In vitro drug efficacy in A549+ACE2 cells; assay type: cell-based; details: Severe acute respiratory syndrome coronavirus 2, 24 hours post infection
Freeze-thaw experiment = details: solutions of the order-of-addition experiment, −20° C. freezer ~24 hours, thawed at room temperature
[12] = pH 7.4
physchem [13] = details: 4 °C, thermodynamic from solid
physchem [14] = details: 25 °C, pH 5, aqueous buffer, thermodynamic from solid, PF-00835321 Saturated Solubility
Human Cathepsin B = Human Cathepsin B (Homo sapiens, UniProt P07858); assay: Protease panel; assay type: biochemical
[15] = tested on: SARS-CoV-2 (USA_WA1/2020); details: for synergy score: isobologram level 0.9
[16] = tested on: BetaCov GHB-03021/2020 strain; assay: microbe, parasite or virus in culture; assay type: cell-based, SARS-CoV-2; details: Severe acute respiratory syndrome coronavirus 2
cytochrome P450 enzymes = details: human, microsomes
Human Chymotrypsin = assay: Protease panel; assay type: biochemical
[17] = Assay of CD/co-solvent/water formulations of different compositions over 5 days (F8); details: all formulations of Formulation Table F11
[18] = Assay over 7 days, 80 mg/mL SBE-β-CD with PEG400/ethanol (F10); details: ~3:1 PEG400:ethanol (1.5-6.0% v/v), 2, 4, 6 and 8 mg/mL PF-00835231, ambient
[19] = Patient Sera 2, individual value, n 1

Chain of OC43-CoV 3CLpro (P0C6X6 3247-3549): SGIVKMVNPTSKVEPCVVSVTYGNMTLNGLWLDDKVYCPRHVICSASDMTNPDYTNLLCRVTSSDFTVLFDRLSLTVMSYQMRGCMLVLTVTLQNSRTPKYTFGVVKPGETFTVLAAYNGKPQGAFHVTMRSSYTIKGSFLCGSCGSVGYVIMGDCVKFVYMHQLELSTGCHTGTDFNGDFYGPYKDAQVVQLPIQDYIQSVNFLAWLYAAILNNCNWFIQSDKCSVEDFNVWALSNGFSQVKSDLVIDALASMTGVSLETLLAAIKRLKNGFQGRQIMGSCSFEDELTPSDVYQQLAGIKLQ

For `COc1cccc2[nH]c(C(=O)N[C@@H](CC(C)C)C(=O)N[C@@H](C[C@@H]3CCNC3=O)C(=O)CO)cc12` [PF-00835231], which Ki (OC43-CoV 3CLpro) is on record?
Its Ki is 0.5 ± 0.1 nM.

What about the “Hill coefficient (m), slope of the dose response curve” value (SARS-CoV-2 [1]) of the same compound?
Its value is 3.

And the CC50 (VeroE6-enACE2 cells)?
The CC50 was greater than 100000 nM.

And the Ki (229E-CoV-2 3CLpro)?
The Ki was 1.5 ± 0.8 nM.

And the “Solid Form at 4° C.” value (pH 3)?
The value was “No Change-Hydrate”.

And the “Solid Form at 4° C.” value (pH 5)?
The value was “No Change-Hydrate”.

What about the “Solid Form at 4° C.” value (pH 7) of the same compound?
The value was “No Change-Hydrate”.

And the solubility at 25 h (physchem [2])?
The solubility at 25 h was 200 µg/mL (≈ 423 µM).

What about the “cytotoxicity in virus infected host cells” value (SARS-CoV-2 [3]; all the combinations with remdesivir tested) of the same compound?
The value was “no noticeable cytotoxicity”.

What about the “Bliss Synergy Score” value (SARS-CoV-2 [3]; Patient Sera 1, average, n 2) of the same compound?
The value was 1.60.

And the “HSA Synergy Score” value (SARS-CoV-2 [3]; Patient Sera 1, average, n 2)?
Its value is 2.51.

What about the “Loewe Synergy Score” value (SARS-CoV-2 [3]; Patient Sera 1, average, n 2) of the same compound?
Its value is 1.60.

What about the “Bliss Synergy Score” value (SARS-CoV-2 [3]; [19]) of the same compound?
Its value is “(0.366)”.

And the “HSA Synergy Score” value (SARS-CoV-2 [3]; [19])?
Its value is “(0.830)”.

What about the “Loewe Synergy Score” value (SARS-CoV-2 [3]; [19]) of the same compound?
Its value is “(−0.0776)”.

And the “classification of the combination effect” value (SARS-CoV-2 [3]; patient #1 sera, 2 independent experiments)?
The value was “synergy”.

And the “classification of the combination effect” value (SARS-CoV-2 [3]; sera from patient #2, single experiment)?
The value was “additivity”.

What about the EC90 (SARS-CoV-2 [4]; Severe acute respiratory syndrome coronavirus 2, HeLa-ACE2, HELA-ACE2, remdesivir concentration 0) of the same compound?
Its EC90 is 433 nM.

And the EC90 (SARS-CoV-2 [4]; Severe acute respiratory syndrome coronavirus 2, HeLa-ACE2, HELA-ACE2, remdesivir concentration 48 (nm in FIG. 5A legend))?
The EC90 was 123 nM.

And the EC90 (SARS-CoV-2 [4]; Severe acute respiratory syndrome coronavirus 2, HeLa-ACE2, HELA-ACE2, remdesivir concentration 95 (nm in FIG. 5A legend))?
The EC90 was 54.5 nM.

What about the EC90 (SARS-CoV-2 [4]; Severe acute respiratory syndrome coronavirus 2, HeLa-ACE2, HELA-ACE2, remdesivir concentration 190 (nm in FIG. 5A legend)) of the same compound?
Its EC90 is less than 0.78 nM.

And the IC50 [5]?
The IC50 was greater than 200000 nM.

What about the “difference in antiviral potency in the presence and absence of P-gp inhibitor” value (HCOV-229E) of the same compound?
Its value is “no significant difference in antiviral potency”.

What about the predicted half-life [6] of the same compound?
The predicted half-life was “approximately 2 h”.

What about the “predicted plasma clearance (CLp)” value [6] of the same compound?
The value was roughly 6 mL/min/kg.

And the “PF-00835321 Solubility” value [7]?
The value was greater than 45000 µg/mL.

What about the “eliminated unchanged in the urine” value [8] of the same compound?
Its value is “approximately 10%”.

What about the “assay values on storage at 4° C. and 25° C. (FIG. 13)” value [9] of the same compound?
Its value is “consistent over the 30 day period tested”.

And the “assay values on storage at −20° C. (FIG. 13)” value [9]?
The value was “consistent over the 7 day period tested”.

And the “melting temperature (Tm) of SARS-CoV-2 3CLpro with compound bound” value (SARS-CoV-2 3CLpro)?
The value was 70.5+/−0.12 °C.

And the fraction unbound [10]?
The fraction unbound was 0.26 to 0.46.

What about the EC50 [11] of the same compound?
Its EC50 is 184 nM.

And the EC90 [11]?
Its EC90 is 591 nM.

What about the “visual inspection after freezing and thawing” value (Freeze-thaw experiment) of the same compound?
The value was “No particulates were observed in any sample”.

What about the SFLogD7.4 [12] of the same compound?
The SFLogD7.4 was 1.7.

What about the solubility at 48 h (physchem [13]; pH 3, aqueous buffer) of the same compound?
The solubility at 48 h was 100 µg/mL (≈ 212 µM).

What about the solubility at 48 h (physchem [13]; pH 5, aqueous buffer) of the same compound?
Its solubility at 48 h is 100 µg/mL (≈ 212 µM).

And the solubility at 48 h (physchem [13]; pH 7, aqueous buffer)?
Its solubility at 48 h is 100 µg/mL (≈ 212 µM).

What about the solubility at 48 h (physchem [14]) of the same compound?
Its solubility at 48 h is 200 µg/mL (≈ 423 µM).

What about the “margin of activity against human cathepsin B compared to 3CLpro” value (Human Cathepsin B) of the same compound?
Its value is 1000 fold.

And the “cytotoxicity of the combinations” value [15]?
The value was “no significant cytotoxicity”.

What about the synergy score ([15]; combination with azithromycin) of the same compound?
Its synergy score is 3.76.

What about the synergy score ([15]; combination with remdesivir) of the same compound?
The synergy score was 5.1.

And the EC90 [16]?
The EC90 was 1600 nM.

And the “unbound CIint” value (cytochrome P450 enzymes)?
Its value is 14 µL/min/mg.

What about the IC50 (Human Chymotrypsin) of the same compound?
The IC50 was greater than 100000 nM.

What about the “appearance of solutions after 5 days mixing at 25° C.” value [17] of the same compound?
The value was “remained clear”.

And the “assay values of filtered formulations over 7 days (FIG. 12)” value [18]?
Its value is “do not change over 7 days”.
